Laboratory results as given in patent publication US20250325531A1, “TREATMENT OF SYSTOLIC DYSFUNCTION” (MyoKardia, Inc., priority 2024, published 2025).

Experiment: Food effect on pharmacokinetics, 200 mg as 25 mg tablets, fed vs fasted, healthy volunteers
Type: in vivo, human
Source text: This example describes a clinical study for establishing, in healthy volunteers, the effect of a high fat, high caloric meal on the PK profile of Compound I, as compared to administration of the drug in the fasted state. The study also was intended to determine the safety and tolerability after a single oral dose of Compound I in the fed and fasted state in healthy volunteers. The measurements of PK, PD, and other clinical parameters were done as described in Example 1 above.
This study was an open-label, randomized, two-period cross-over study in healthy volunteers aged 18-55 years. Subjects were screened up to 28 days before the first treatment period. Subjects were admitted to the clinical site on Day −1 (the day before dosing) of Period 1. Approximately half of the subjects randomly received a single dose of Compound I on Day 1 of the first treatment period after the ingestion of a high fat, high caloric breakfast, and the remainder were dosed in the fasted state. Any subject with a predose resting HR ≥95 beats per minute (bpm) was considered ineligible and was not treated. Any subjects with an acute gastrointestinal disorder which could impact drug/food absorption (e.g., vomiting, diarrhea) were rescheduled. Subjects were confined to the clinic until Day 4, and discharged after the 72-hour postdose PK and laboratory samples and vital signs were obtained. After a washout between dosing from 7 to 10 days (or, after consultation with the Investigator, up to 21 days after initial dosing if the subject was unable to attend within the 7 to 10-day window), the subject was admitted for Period 2. The sequence of fed/fasted versus fasted/fed periods was randomized. Subjects returned after the second treatment period for a safety follow-up visit on Day 7 (+1 day).
In both treatment periods, Compound I was administered with 240 mL of water. In the fasted state, the subjects fasted for 10 hours before and for 4 hours after the administration of Compound I. Water could have been ingested up to 1 hour before and after 1 hour post dosing. In the fed state, the subjects fasted for 10 hours before and for 4 hours after the ingestion of the meal, but could have ingested water up to 1 hour before and 1 hour after dosing. In the fed state, the subjects started ingesting the high fat, high caloric meal within 30 minutes prior to Compound I administration and finished the meal within 30 minutes. The meal contained approximately 800 to 1000 calories with about 50% of the calories from fat. The meal consisted of approximately 150 calories from protein, 250 calories from carbohydrate, and 500-600 calories from fat. An example of the meal was a breakfast consisting of two eggs fried in butter, two strips of bacon, two slices of buttered toast, 4 ounces of hash brown potatoes, and 8 ounces of whole milk.
Each subject received two oral doses of 200 mg of Compound I formulated as 25 mg tablets (8 tablets) in a randomized, cross-over fashion, once in the fasted state and the other time after the ingestion of a high fat, high caloric breakfast. There was a washout of between 7 and 21 days between the administrations of the two doses. The Compound I drug substance was a crystalline, free-base, synthetic molecule with a molecular weight of 435.4.
Plasma drug concentrations were measured as described in Example 1 above. Blood samples to measure Compound I plasma concentration were collected at various time points, including on Day 1 predose (1 hour prior to dosing) and at 1 (±5 min), 2 (±5 min), 3 (±5 min), 4 (═10 min), 5 (±10 min), 6 (±10 min), 9 (±20 min), 12 (±20 min), 18 (±30 min), 24 (±30 min), 36 (±30 min), 48 (±30 min), and 72 (±30 min) hours postdose on both treatment periods.
To assess the effect of food on the PK of Compound I, the two one-sided t-test procedure was used to construct 90% CI around the geometric mean ratios (fed/fasted) of plasma AUCinf, AUClast, and Cmax. […]

[1] = 200 mg, subjects who completed both periods (N = 9)
[2] = 200 mg, subjects who completed both fasted and fed periods (N = 9)
[3] = single oral 200 mg, Fasted (N = 10)
[4] = single oral 200 mg, Fed (N = 10)

Compound: Cn1cc(S(=O)(=O)[C@@](C)(F)C2CCN(C(=O)Nc3ccon3)CC2)c(C(F)F)n1 [Compound I, (R)-4-(1-((3-(difluoromethyl)-1-methyl-1H-pyrazol-4-yl)sulfonyl)-1-fluoroethyl)-N-(isoxazol-3-yl) piperidine-1-carboxamide]
- exposure (Cmax) higher in fed vs fasted state (200 mg): ~60%
- AUClast, Fasted LSGM (200 mg, N = 11): 57400 ng·h/mL
- Cmax, Fasted LSGM (200 mg, N = 11): 2300 ng/mL
- Cmax, Fed LSGM (200 mg, N = 11): 3640 ng/mL
- AUCinf, Geometric Mean Ratio - Fed/Fasted (200 mg, N = 11, 90% CI 130.30-182.67): 154.28 % of Reference
- AUClast, Geometric Mean Ratio - Fed/Fasted (200 mg, N = 11, 90% CI 131.11-180.92): 154.02 % of Reference
- Cmax, Geometric Mean Ratio - Fed/Fasted (200 mg, N = 11, 90% CI 137.11-182.33): 158.11 % of Reference
- Median (range) Tmax (200 mg, fed state): 5.5 h
- AUC0-t geometric mean ratio (fed/fasted) [1]: 153.20%
- AUCinf geometric mean ratio (fed/fasted) [1]: 153.63%
- Cmax geometric mean ratio (fed/fasted) [1]: 156.43%
- AUCinf, Geometric Mean Ratio - Fed/Fasted [2]: 153.63 % of Reference
- AUClast, Fasted LSGM [2]: 59000 ng·h/mL
- AUClast, Geometric Mean Ratio - Fed/Fasted [2]: 153.20 % of Reference
- Cmax, Fasted LSGM [2]: 2370 ng/mL
- Cmax, Fed LSGM [2]: 3700 ng/mL
- Cmax, Geometric Mean Ratio - Fed/Fasted [2]: 156.43 % of Reference
- MRT, Mean [3]: 22.55 h
- MRT, Median [3]: 23.86 h
- T1/2, z, Mean [3]: 14.28 h
- AUCinf, Median [4]: 93950 ng·h/mL
- AUClast, Geometric Mean [4]: 88400 ng·h/mL
- AUClast, Median [4]: 89310 ng·h/mL
- Cmax Geometric Mean [4]: 3644 ng/mL
- T1/2, z, Geometric Mean [4]: 13.56 h
